Results from patent publication US20140000883A1, “PETROLEUM RECOVERY PROCESS AND SYSTEM” (Shell Oil Company, priority 2012, published 2014).
Several values for one entry are separate records, joined by “and”; a condition that tells them apart may be missing. Equal values may be shown once. Read-outs that look alike come from different tables or passages of the source.

Key:
[1] = Extraction of mined oil sands with solvents (bitumen recovery);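 on Recovered Bitumen: Bitumen mass includes 3 to 7 wt% residual solvent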
Experimental: The quality of dimethyl sulfide as an oil recovery agent based on the miscibility of dimethyl sulfide with a crude oil relative to other compounds was evaluated. […] Each oil sands sample was weighed and placed in a cellulose extraction thimble that was placed on a porous polyethylene support disk in a jacketed glass cylinder with a drip rate control valve. Each oil sands sample was then extracted with a selected solvent at a selected temperature (10° C. or 30° C.) in a cyclic contact and drain experiment, where the contact time ranged from 15 to 60 minutes. Fresh contacting solvent was applied and the cyclic extraction repeated until the fluid drained from the apparatus became pale brown in color.
The extracted fluids were stripped of solvent using a rotary evaporator and thereafter vacuum dried to remove residual solvent. […] The residual solids and extraction thimble were air dried, weighed, and then vacuum dried. […] Collectively, the weight of the solid or sample and thimble recovered after extraction plus the quantity of bitumen recovered after extraction divided by the weight of the initial oil sands sample plus the thimble provide the mass closure for the extractions.

[2] = SARA analysis of extracted bitumen samples; conditions: bitumen extracted at 30° C.
Experimental: The bitumen samples extracted at 30° C. from each oil sands sample were evaluated by SARA analysis to determine the saturates, aromatics, resins, and asphaltenes composition of the bitumen samples extracted by each solvent.

[3] = extraction at 10 C., not corrected for residual solvent
[4] = extraction at 30 C., not corrected for residual solvent

Structure (SMILES) | Weight Change ([1]; extraction at 10 C.) | Recovered Bitumen [1, 3] | Weight Change ([1]; extraction at 30 C.) | Recovered Bitumen [1, 4] | Recovered Bitumen [1] | Weight Change [1] | extraction of / miscibility with asphaltenes [2]
S=C=S [Carbon Disulfide, carbon disulfide] | 16.8 g | 16.62 g | 16.4 g | 16.43 g | – | – | –
ClC(Cl)Cl [Chloroform, chloroform] | – | – | – | – | 17.85 g and 18.62 g | 18.7 g and 19.4 g | –
ClCCl [Dichloromethane, dichloromethane] | 18.9 g | 17.66 g | 17.7 g | 16.30 g | – | – | –
CCOC(C)=O [Ethyl Acetate, ethyl acetate] | 11.2 g | 10.32 g | 17.7 g | 11.46 g | – | – | much less effective
C1CCOC1 [Tetrahydrofuran, tetrahydrofuran] | 17.7 g | 16.72 g | 18.0 g | 17.67 g | – | – | –
Cc1ccccc1C [o-Xylene, o-xylene] | 17.3 g | 17.36 g | 19.5 g | 17.37 g | – | – | –
